Assay results published in patent publication US20220119354A1, “DIAMINO-SUBSTITUTED PYRIDINES AND PYRIMIDINES AS HERBICIDES” (FMC Corporation, priority 2019, published 2022).

Columns and labels:
Assay type in all cases: in vivo
[1] = system: ryegrass, Italian (Lolium multiflorum); assay: Test A preemergence, Italian ryegrass; conditions: 0 to 100 scale, 0 is no effect, 100 is complete control
How it was run: (§1)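 Visual injury scored against untreated controls about 10 d after treatment, scale 0 = no effect to 100 = complete control. Compounds, formulated with surfactant in a non-phytotoxic solvent, went on as directed soil spray preemergence or onto 2–10 cm, one- to two-leaf plants postemergence; loam–sand soil, greenhouse.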

[2] = system: ragweed (common ragweed, Ambrosia elatior); assay: Test A postemergence, ragweed; conditions: 0 to 100 scale, 0 no effect, 100 complete control
How it was run: as §1

[3] = system: pigweed (Amaranthus retroflexus); assay: Test A preemergence, pigweed; conditions: 0 to 100 scale, 0 is no effect, 100 is complete control
How it was run: as §1

kochia (Kochia scoparia) [4] = assay: Test A postemergence, kochia; conditions: 0 to 100 scale, 0 no effect, 100 complete control
How it was run: as §1

[5] = system: ducksalad (Heteranthera limosa); assay: Test B flooded paddy test, ducksalad; conditions: Flood, 250 g ai/ha, applied to paddy water, 2-leaf stage, visual evaluation after 13 to 15 d
How it was run: (§2)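 Visual injury scores run from 0 (no effect) to 100 (complete control), assigned by comparison with controls 13 to 15 d after treatment. Treatment went into floodwater standing 3 cm over the soil of pots holding 2-leaf plants.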

[6] = system: ryegrass, Italian (Lolium multiflorum); assay: Test A postemergence, Italian ryegrass; conditions: 0 to 100 scale, 0 no effect, 100 complete control
How it was run: as §1

[7] = system: barnyardgrass (Echinochloa crus-galli); assay: Test A preemergence, barnyardgrass; conditions: 0 to 100 scale, 0 is no effect, 100 is complete control
How it was run: as §1

[8] = system: foxtail, giant (Setaria faberii); assay: Test A preemergence, giant foxtail; conditions: 0 to 100 scale, 0 is no effect, 100 is complete control
How it was run: as §1

[9] = system: wheat (Triticum aestivum); assay: Test A postemergence, wheat; conditions: 0 to 100 scale, 0 no effect, 100 complete control
How it was run: as §1

[10] = system: galium (catchweed bedstraw, Galium aparine); assay: Test A postemergence, galium; conditions: 0 to 100 scale, 0 no effect, 100 complete control
How it was run: as §1

[11] = system: barnyardgrass (Echinochloa crus-galli); assay: Test A postemergence, barnyardgrass; conditions: 0 to 100 scale, 0 no effect, 100 complete control
How it was run: as §1

[12] = system: foxtail, giant (Setaria faberii); assay: Test A postemergence, giant foxtail; conditions: 0 to 100 scale, 0 no effect, 100 complete control
How it was run: as §1

[13] = system: pigweed (Amaranthus retroflexus); assay: Test A postemergence, pigweed; conditions: 0 to 100 scale, 0 no effect, 100 complete control
How it was run: as §1

[14] = system: blackgrass (Alopecurus myosuroides); assay: Test A postemergence, blackgrass; conditions: 0 to 100 scale, 0 no effect, 100 complete control
How it was run: as §1

corn (Zea mays) = assay: Test A postemergence, corn; conditions: 0 to 100 scale, 0 no effect, 100 complete control
How it was run: as §1

[15] = system: barnyardgrass (Echinochloa crus-galli); assay: Test B flooded paddy test, barnyardgrass; conditions: Flood, 250 g ai/ha, applied to paddy water, 2-leaf stage, visual evaluation after 13 to 15 d
How it was run: as §2

rice (Oryza sativa) = assay: Test B flooded paddy test, rice; conditions: Flood, 250 g ai/ha, applied to paddy water, 2-leaf stage, visual evaluation after 13 to 15 d
How it was run: as §2

kochia (Kochia scoparia) [16] = assay: Test A preemergence, kochia; conditions: 0 to 100 scale, 0 is no effect, 100 is complete control
How it was run: as §1

[17] = system: sedge, umbrella (small-flower umbrella sedge, Cyperus difformis); assay: Test B flooded paddy test, umbrella sedge; conditions: Flood, 250 g ai/ha, applied to paddy water, 2-leaf stage, visual evaluation after 13 to 15 d
How it was run: as §2

[18] = system: ragweed (common ragweed, Ambrosia elatior); assay: Test A preemergence, ragweed; conditions: 0 to 100 scale, 0 is no effect, 100 is complete control
How it was run: as §1

Row | SMILES | Ryegrass, Italian plant response rating ([1]; 125 g ai/ha) | Ryegrass, Italian plant response rating ([1]; 500 g ai/ha) | Plant response rating, Ragweed ([2]; 125 g ai/ha) | Plant response rating, Ragweed ([2]; 500 g ai/ha) | Pigweed plant response rating ([3]; 125 g ai/ha) | Pigweed plant response rating ([3]; 500 g ai/ha) | Plant response rating, Kochia (kochia (Kochia scoparia) [4]; 125 g ai/ha) | Plant response rating, Kochia (kochia (Kochia scoparia) [4]; 500 g ai/ha) | Plant response rating, Ducksalad (0 to 100 scale, 0 is no effect, 100 is complete control) [5] | Plant response rating, Ryegrass, Italian ([6]; 125 g ai/ha) | Plant response rating, Ryegrass, Italian ([6]; 500 g ai/ha) | Barnyardgrass plant response rating ([7]; 125 g ai/ha) | Barnyardgrass plant response rating ([7]; 500 g ai/ha) | Foxtail, Giant plant response rating ([8]; 125 g ai/ha) | Foxtail, Giant plant response rating ([8]; 500 g ai/ha) | Plant response rating, Wheat ([9]; 125 g ai/ha) | Plant response rating, Wheat ([9]; 500 g ai/ha) | Plant response rating, Galium ([10]; 125 g ai/ha) | Plant response rating, Galium ([10]; 500 g ai/ha) | Plant response rating, Barnyardgrass ([11]; 125 g ai/ha) | further results
1 | C[C@H](Nc1ncc(C(F)(F)F)c(N)n1)c1cc2c(F)cccc2o1 [Compound 74] | 0 | 0 | 20 | 30 | 0 | 10 | 20 | 60 | 0 | 0 | 0 | 0 | 0 | 0 | 0 | 0 | 0 | 0 | 50 | 0 | Plant response rating, Barnyardgrass ([11]; 500 g ai/ha): 0; Plant response rating, Foxtail, Giant ([12]; 125 g ai/ha): 0; Plant response rating, Foxtail, Giant ([12]; 500 g ai/ha): 0; Plant response rating, Pigweed ([13]; 125 g ai/ha): 60; Plant response rating, Pigweed ([13]; 500 g ai/ha): 90; Plant response rating, Blackgrass ([14]; 125 g ai/ha): 0; Plant response rating, Blackgrass ([14]; 500 g ai/ha): 0; Plant response rating, Corn (corn (Zea mays); 125 g ai/ha): 0; Plant response rating, Corn (corn (Zea mays); 500 g ai/ha): 0; Plant response rating, Barnyardgrass (0 to 100 scale, 0 is no effect, 100 is complete control) [15]: 0; Plant response rating, Rice (0 to 100 scale, 0 is no effect, 100 is complete control) (rice (Oryza sativa)): 0; Kochia plant response rating (kochia (Kochia scoparia) [16]; 125 g ai/ha): 0; Kochia plant response rating (kochia (Kochia scoparia) [16]; 500 g ai/ha): 0; Plant response rating, Sedge, Umbrella (0 to 100 scale, 0 is no effect, 100 is complete control) [17]: 0; Ragweed plant response rating ([18]; 125 g ai/ha): 0; Ragweed plant response rating ([18]; 500 g ai/ha): 40
2 | C[C@H](Nc1ncc(C(F)(F)F)c(N)n1)c1cc2ccccc2n1C [Compound 76] | 0 | 30 | 0 | 30 | 0 | 0 | 0 | 0 | 0 | 0 | 0 | 0 | 0 | 0 | 0 | 0 | 0 | 30 | 30 | 0 | Plant response rating, Barnyardgrass ([11]; 500 g ai/ha): 0; Plant response rating, Foxtail, Giant ([12]; 125 g ai/ha): 0; Plant response rating, Foxtail, Giant ([12]; 500 g ai/ha): 0; Plant response rating, Pigweed ([13]; 125 g ai/ha): 0; Plant response rating, Pigweed ([13]; 500 g ai/ha): 0; Plant response rating, Blackgrass ([14]; 125 g ai/ha): 0; Plant response rating, Blackgrass ([14]; 500 g ai/ha): 0; Plant response rating, Corn (corn (Zea mays); 125 g ai/ha): 0; Plant response rating, Corn (corn (Zea mays); 500 g ai/ha): 0; Plant response rating, Barnyardgrass (0 to 100 scale, 0 is no effect, 100 is complete control) [15]: 0; Plant response rating, Rice (0 to 100 scale, 0 is no effect, 100 is complete control) (rice (Oryza sativa)): 0; Kochia plant response rating (kochia (Kochia scoparia) [16]; 125 g ai/ha): 0; Kochia plant response rating (kochia (Kochia scoparia) [16]; 500 g ai/ha): 0; Plant response rating, Sedge, Umbrella (0 to 100 scale, 0 is no effect, 100 is complete control) [17]: 0; Ragweed plant response rating ([18]; 125 g ai/ha): 0; Ragweed plant response rating ([18]; 500 g ai/ha): 0
3 | Nc1nc(N[C@H](c2coc3ccccc23)C2CC2)ncc1C(F)(F)F [Compound 78] | 20 | 50 | 0 | 0 | 0 | 20 | 0 | 20 | 0 | 0 | 0 | 0 | 0 | 0 | 0 | 0 | 0 | 0 | 10 | 0 | Plant response rating, Barnyardgrass ([11]; 500 g ai/ha): 0; Plant response rating, Foxtail, Giant ([12]; 125 g ai/ha): 0; Plant response rating, Foxtail, Giant ([12]; 500 g ai/ha): 0; Plant response rating, Pigweed ([13]; 125 g ai/ha): 60; Plant response rating, Pigweed ([13]; 500 g ai/ha): 70; Plant response rating, Blackgrass ([14]; 125 g ai/ha): 0; Plant response rating, Blackgrass ([14]; 500 g ai/ha): 0; Plant response rating, Corn (corn (Zea mays); 125 g ai/ha): 0; Plant response rating, Corn (corn (Zea mays); 500 g ai/ha): 0; Plant response rating, Barnyardgrass (0 to 100 scale, 0 is no effect, 100 is complete control) [15]: 0; Plant response rating, Rice (0 to 100 scale, 0 is no effect, 100 is complete control) (rice (Oryza sativa)): 0; Kochia plant response rating (kochia (Kochia scoparia) [16]; 125 g ai/ha): 80; Kochia plant response rating (kochia (Kochia scoparia) [16]; 500 g ai/ha): 90; Plant response rating, Sedge, Umbrella (0 to 100 scale, 0 is no effect, 100 is complete control) [17]: 0; Ragweed plant response rating ([18]; 125 g ai/ha): 0; Ragweed plant response rating ([18]; 500 g ai/ha): 20
4 | Nc1nc(N[C@@H](c2coc3ccccc23)C2CC2)ncc1C(F)(F)F [Compound 79, N2-[(R)-3-benzofuranylcyclopropylmethyl]-5-(trifluoromethyl)-2,4-pyrimidinediamine] | 100 | 100 | 80 | 90 | 90 | 100 | 90 | 90 | 98 | 60 | 80 | 90 | 100 | 100 | 100 | 0 | 20 | 70 | 90 | 70 | Plant response rating, Barnyardgrass ([11]; 500 g ai/ha): 100; Plant response rating, Foxtail, Giant ([12]; 125 g ai/ha): 60; Plant response rating, Foxtail, Giant ([12]; 500 g ai/ha): 90; Plant response rating, Pigweed ([13]; 125 g ai/ha): 100; Plant response rating, Pigweed ([13]; 500 g ai/ha): 100; Plant response rating, Blackgrass ([14]; 125 g ai/ha): 60; Plant response rating, Blackgrass ([14]; 500 g ai/ha): 90; Plant response rating, Corn (corn (Zea mays); 125 g ai/ha): 0; Plant response rating, Corn (corn (Zea mays); 500 g ai/ha): 70; Plant response rating, Barnyardgrass (0 to 100 scale, 0 is no effect, 100 is complete control) [15]: 55; Plant response rating, Rice (0 to 100 scale, 0 is no effect, 100 is complete control) (rice (Oryza sativa)): 10; Kochia plant response rating (kochia (Kochia scoparia) [16]; 125 g ai/ha): 0; Kochia plant response rating (kochia (Kochia scoparia) [16]; 500 g ai/ha): 0; Plant response rating, Sedge, Umbrella (0 to 100 scale, 0 is no effect, 100 is complete control) [17]: 95; Ragweed plant response rating ([18]; 125 g ai/ha): 100; Ragweed plant response rating ([18]; 500 g ai/ha): 100
5 | CC[C@@H](Nc1ncc(C(F)(F)F)c(N)n1)c1coc2ccccc12 [Compound 80] | 70 | 100 | 90 | 90 | 90 | 100 | 80 | 90 | 85 | 0 | 90 | 90 | 100 | 90 | 100 | 30 | 30 | 70 | 90 | 40 | Plant response rating, Barnyardgrass ([11]; 500 g ai/ha): 100; Plant response rating, Foxtail, Giant ([12]; 125 g ai/ha): 0; Plant response rating, Foxtail, Giant ([12]; 500 g ai/ha): 0; Plant response rating, Pigweed ([13]; 125 g ai/ha): 100; Plant response rating, Pigweed ([13]; 500 g ai/ha): 100; Plant response rating, Blackgrass ([14]; 125 g ai/ha): 0; Plant response rating, Blackgrass ([14]; 500 g ai/ha): 70; Plant response rating, Corn (corn (Zea mays); 125 g ai/ha): 20; Plant response rating, Corn (corn (Zea mays); 500 g ai/ha): 50; Plant response rating, Barnyardgrass (0 to 100 scale, 0 is no effect, 100 is complete control) [15]: 90; Plant response rating, Rice (0 to 100 scale, 0 is no effect, 100 is complete control) (rice (Oryza sativa)): 10; Kochia plant response rating (kochia (Kochia scoparia) [16]; 125 g ai/ha): 90; Kochia plant response rating (kochia (Kochia scoparia) [16]; 500 g ai/ha): 100; Plant response rating, Sedge, Umbrella (0 to 100 scale, 0 is no effect, 100 is complete control) [17]: 95; Ragweed plant response rating ([18]; 125 g ai/ha): 100; Ragweed plant response rating ([18]; 500 g ai/ha): 100
